Among the data in BindingDB's records for doi:10.1021/bi300261p (University of Colorado Boulder, 2012) are Kd values, retold here.

Where only a bound is given, the exact number is not on record here.

This test deals with T1, Pentachlorophenol 4-monooxygenase (Sphingobium chlorophenolicum, UniProt P42535).
T1 sequence (P42535 whole entry): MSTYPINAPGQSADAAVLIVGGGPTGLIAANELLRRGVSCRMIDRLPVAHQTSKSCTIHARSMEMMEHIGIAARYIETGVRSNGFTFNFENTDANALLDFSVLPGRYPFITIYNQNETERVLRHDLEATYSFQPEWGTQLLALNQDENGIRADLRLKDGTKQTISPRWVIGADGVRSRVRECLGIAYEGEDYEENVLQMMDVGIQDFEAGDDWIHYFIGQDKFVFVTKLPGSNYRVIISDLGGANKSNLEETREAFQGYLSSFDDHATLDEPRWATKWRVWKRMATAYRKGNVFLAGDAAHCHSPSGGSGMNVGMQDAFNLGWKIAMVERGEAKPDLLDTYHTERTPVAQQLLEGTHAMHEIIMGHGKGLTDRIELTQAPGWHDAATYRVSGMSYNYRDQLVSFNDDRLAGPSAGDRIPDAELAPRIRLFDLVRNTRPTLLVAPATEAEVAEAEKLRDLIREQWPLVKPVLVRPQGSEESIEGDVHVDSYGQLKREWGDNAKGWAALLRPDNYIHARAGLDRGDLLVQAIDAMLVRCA
Nature of the test: Spectroscopic Assay. As for the experimental part:
Formation of the hydroxylated product and depletion of NADPH were measured following ethyl acetate extraction of the reaction mixture.

Consider `Oc1c(Cl)c(Cl)cc(Cl)c1Cl` [2,3,4,6-Tetrachlorophenol (TCP)], for which the Kd – broadly, the free concentration of one partner at which half of the binding sites on the other are occupied at equilibrium, for simple one-to-one binding – came to 11 µM. The same measure for `Oc1c(Cl)cc(Cl)cc1Cl` [2,4,6-Trichlorophenol (2,4,6-TriCP)]: 7 µM; for `Oc1c(Cl)cccc1Cl` [2,6-Dichlorophenol]: 45.5 µM; for `Oc1ccccc1Cl` [2-Chlorophenol (2-CP)]: more than 1000 µM.

For the compound `Oc1cc(Cl)cc(Cl)c1` [3,5-Dichlorphenol (3,5-DCP)], the Kd is more than 500 µM. The same measure for `Oc1c(Cl)c(Cl)c(Cl)c(Cl)c1Cl` [Pentachlorophenol (PCP)]: less than 0.05 µM; for `Oc1cc(Cl)c(Cl)c(Cl)c1` [SMR001307309]: more than 500 µM.

Take `Oc1c(Cl)c(Cl)c(O)c(Cl)c1Cl` [Tetrachlorohydroquinone (TCHQ)]: the Kd worked out at 4.2 µM.
